# Results taken from patent US5089273A, “Ecteinascidins 729, 743, 745, 759A, 759B and 770” (priority 1990, dated 1992).
# Read-outs that look alike come from different tables or passages of the source.
# Experiments:
# CV-1 cells = experiment: Cytotoxic activity vs. CV-1 cells (disk zones of inhibition); assay type: cell-based; conditions: for zone of inhibition at 0.05 µg/disc / zone of inhibition at 0.1 µg/disc / zone of inhibition at 0.2 µg/disc / zone of inhibition at 0.4 µg/disc / zone of inhibition at 0.8 µg/disc / zone of inhibition at 1.6 µg/disc: Cercopithecidae, read-out: Zones of Inhibition
# Experimental: (§1) The antimicrobial activities (vs. M. luteus) and the cytotoxic activities (vs. CV-1 cells) of the ecteinascidins and ecteinascidin 743 derivatives are shown in Table 1 and 2. […] All of the derivatives of ecteinascidin 743 that were prepared have antimicrobial and cytotoxic activities.
# Staphylococcus aureus = experiment: Antimicrobial Spectrum, zones of inhibition; assay type: cell-based; conditions: 6.35-mm disk
# [1] = system: L1210 mouse leukemia cells; experiment: L1210 Tube Dilution Assay; assay type: cell-based; conditions: for IC90: L1210, concentration needed to inhibit cell growth by 90 percent, in vitro, read-out: ID90 (the source's name); for IC50: L1210, read-out: ID50
# Excerpt: The L1210 tube dilution assay is described in detail in a publication by L. H. Li, et al., Cancer Research, 39:4816 (1979). ID50 and ID90 refer to the concentration of ecteinascidin needed to inhibit cell growth by […], respectively.
# Klebsiella pneumoniae = experiment: Antimicrobial Spectrum, zones of inhibition; assay type: cell-based; conditions: 6.35-mm disk
# Pseudomonas aeruginosa = experiment: Antimicrobial Spectrum, zones of inhibition; assay type: cell-based; conditions: 6.35-mm disk
# Sarcina lutea = experiment: Antimicrobial Spectrum, zones of inhibition; assay type: cell-based; conditions: Micrococcus luteus; 10 μg/disk; 6.35-mm disk
# bacteria = experiment: Antibacterial Activity (disk zone of inhibition, Example 4); assay type: cell-based
# Excerpt: | Zone of inhibition (mm)
# Penicillium oxalicum = experiment: Antimicrobial Spectrum, zones of inhibition; assay type: cell-based; conditions: 6.35-mm disk
# Bacillus subtilis = experiment: Antimicrobial Spectrum, zones of inhibition; assay type: cell-based; conditions: 6.35-mm disk
# Mycobacterium avium = experiment: Antimicrobial Spectrum, zones of inhibition; assay type: cell-based; conditions: 6.35-mm disk
# P388 leukemia = experiment: In vivo P388 mouse leukemia test; conditions: for T/C (%): Table 4; for T/C: Example 6
# Excerpt: Compounds of this invention are also active in vivo against P388 leukemia in mice. The P388 mouse leukemia test is described in detail in a publication by G. L. Neil et al., Cancer Treatment Reports, 63: 1971-1978 (1979).
# Saccharomyces cerevisiae = experiment: Antimicrobial Spectrum, zones of inhibition; assay type: cell-based; conditions: 6.35-mm disk
# Escherichia coli = experiment: Antimicrobial Spectrum, zones of inhibition; assay type: cell-based; conditions: 6.35-mm disk
# Sarcina lutea sens. = experiment: Antimicrobial Spectrum, zones of inhibition; assay type: cell-based; conditions: Micrococcus luteus, 6.35-mm disk
# DNA = experiment: biomedical induction assay (BIA), an assay for DNA interaction
# M. luteus = experiment: Antimicrobial activity vs. M. luteus (disk zones of inhibition); assay type: cell-based; conditions: for zone of inhibition at 0.05 µg/disc / zone of inhibition at 0.1 µg/disc / zone of inhibition at 0.2 µg/disc / zone of inhibition at 0.4 µg/disc / zone of inhibition at 0.8 µg/disc / zone of inhibition at 1.6 µg/disc: Micrococcus luteus; for zone of inhibition at 0.05 µg/disc: 50 ng/6.35-mm disk; for zone of inhibition at 0.1 µg/disc: 100 ng/6.35-mm disk; for zone of inhibition at 0.2 µg/disc: 200 ng/6.35-mm disk; for zone of inhibition at 0.4 µg/disc: 400 ng/6.35-mm disk; for zone of inhibition at 0.8 µg/disc: 800 ng/6.35-mm disk; for zone of inhibition at 1.6 µg/disc: 1600 ng/6.35-mm disk; for antimicrobial activity (in words): dilutions accurate to within a factor of 2; for times less potent than ecteinascidins 729 and 743: relative to ecteinascidins 729 and 743
# Experimental: as §1
# Bacillus subtilis syn = experiment: Antimicrobial Spectrum, zones of inhibition; assay type: cell-based; conditions: 6.35-mm disk
smiles,measurement,setting,value
COc1cc2c(cc1O)CCN[C@]21CS[C@@H]2c3c(OC(C)=O)c(C)c4c(c3[C@H](COC1=O)N1[C@@H]2[C@H]2c3c(cc(C)c(OC)c3O)C[C@@H]([C@@H]1O)N2C)OCO4 [Ecteinascidin 743],zone of inhibition at 0.05 µg/disc,CV-1 cells; 50 ng/6.35-mm disk,14 mm
same,zone of inhibition at 0.1 µg/disc,CV-1 cells; 100 ng/6.35-mm disk,16 mm
same,zone of inhibition at 0.2 µg/disc,CV-1 cells; 200 ng/6.35-mm disk,20 mm
same,zone of inhibition at 0.4 µg/disc,CV-1 cells; 400 ng/6.35-mm disk,23 mm
same,zone of inhibition at 0.8 µg/disc,CV-1 cells; 800 ng/6.35-mm disk,23 mm
same,zone of inhibition at 1.6 µg/disc,CV-1 cells; 1600 ng/6.35-mm disk,28 mm
same,zone of inhibition at 10 µg/disc,Staphylococcus aureus; 10 μg/disk,19 mm
same,IC90,[1],0.0017 µg/mL
same,IC50,[1],0.0005 µg/mL
same,zone of inhibition at 10 µg/disc,Klebsiella pneumoniae; 10 μg/disk,20 mm
same,zone of inhibition at 10 µg/disc,Pseudomonas aeruginosa; 10 μg/disk,0 mm
same,zone of inhibition at 10 µg/disc,Sarcina lutea,27 mm
same,Zone of inhibition,bacteria; 0.005 μg/disk,trace
same,zone of inhibition at 0.01 µg/disc,bacteria; 0.01 μg/disk,7 mm
same,zone of inhibition at 0.02 µg/disc,bacteria; 0.02 μg/disk,9 mm
same,zone of inhibition at 0.05 µg/disc,bacteria; 0.05 μg/disk,12 mm
same,zone of inhibition at 0.1 µg/disc,bacteria; 0.1 μg/disk,14 mm
same,zone of inhibition at 0.2 µg/disc,bacteria; 0.2 μg/disk,17 mm
same,zone of inhibition at 10 µg/disc,Penicillium oxalicum; 10 μg/disk,10 mm
same,zone of inhibition at 10 µg/disc,Bacillus subtilis; 10 μg/disk,25 mm
same,zone of inhibition at 10 µg/disc,Mycobacterium avium; 10 μg/disk,17 mm
same,T/C (%),P388 leukemia; 0.015 mg/kg,167%
same,T/C,P388 leukemia; 0.031 mg/kg,161
same,T/C,P388 leukemia; 0.063 mg/kg,toxic
same,zone of inhibition at 10 µg/disc,Saccharomyces cerevisiae; 10 μg/disk,0 mm
same,zone of inhibition at 10 µg/disc,Escherichia coli; 10 μg/disk,11 mm
same,zone of inhibition at 10 µg/disc,Sarcina lutea sens.; 10 μg/disk,35 mm
same,result in biomedical induction assay (BIA),DNA,negative
same,zone of inhibition at 0.05 µg/disc,M. luteus,9 mm
same,zone of inhibition at 0.1 µg/disc,M. luteus,12 mm
same,zone of inhibition at 0.2 µg/disc,M. luteus,13 mm
same,zone of inhibition at 0.4 µg/disc,M. luteus,14 mm
same,zone of inhibition at 0.8 µg/disc,M. luteus,20 mm
same,zone of inhibition at 1.6 µg/disc,M. luteus,23 mm
same,antimicrobial activity (in words),M. luteus,approximately equivalent and represent the most potent compounds in the series
same,zone of inhibition at 10 µg/disc,Bacillus subtilis syn; 10 μg/disk,26 mm
"COc1cc2c(cc1OC(C)=O)CCN[C@]21CS[C@@H]2c3c(OC(C)=O)c(C)c4c(c3[C@H](COC1=O)N1[C@@H]2[C@H]2c3c(cc(C)c(OC)c3O)C[C@@H]([C@@H]1O)N2C)OCO4 [Monoacetyl, Acetylecteinascidin 743]",zone of inhibition at 0.05 µg/disc,CV-1 cells; 50 ng/6.35-mm disk,18 mm
same,zone of inhibition at 0.1 µg/disc,CV-1 cells; 100 ng/6.35-mm disk,22 mm
same,zone of inhibition at 0.2 µg/disc,CV-1 cells; 200 ng/6.35-mm disk,22 mm
same,zone of inhibition at 0.4 µg/disc,CV-1 cells; 400 ng/6.35-mm disk,25 mm
same,zone of inhibition at 0.8 µg/disc,CV-1 cells; 800 ng/6.35-mm disk,28 mm
same,zone of inhibition at 1.6 µg/disc,CV-1 cells; 1600 ng/6.35-mm disk,30 mm
same,zone of inhibition at 0.05 µg/disc,M. luteus,10 mm
same,zone of inhibition at 0.1 µg/disc,M. luteus,12 mm
same,zone of inhibition at 0.2 µg/disc,M. luteus,14 mm
same,zone of inhibition at 0.4 µg/disc,M. luteus,20 mm
same,zone of inhibition at 0.8 µg/disc,M. luteus,20 mm
same,zone of inhibition at 1.6 µg/disc,M. luteus,28 mm
same,activity relative to ecteinascidin 743 (in words),"M. luteus; relative to the original compound, antimicrobial and cytotoxic",enhanced activity over the original compound
COc1cc2c(cc1O)CCN[C@]21CS[C@@H]2c3c(OC(C)=O)c(C)c4c(c3[C@H](COC1=O)N1[C@@H]2[C@H]2c3c(cc(C)c(OC)c3O)C[C@@H]([C@@H]1C#N)N2C)OCO4 [Ecteinascidin 770],zone of inhibition at 0.05 µg/disc,CV-1 cells; 50 ng/6.35-mm disk,10 mm
same,zone of inhibition at 0.1 µg/disc,CV-1 cells; 100 ng/6.35-mm disk,14 mm
same,zone of inhibition at 0.2 µg/disc,CV-1 cells; 200 ng/6.35-mm disk,16 mm
same,zone of inhibition at 0.4 µg/disc,CV-1 cells; 400 ng/6.35-mm disk,20 mm
same,zone of inhibition at 0.8 µg/disc,CV-1 cells; 800 ng/6.35-mm disk,24 mm
same,zone of inhibition at 1.6 µg/disc,CV-1 cells; 1600 ng/6.35-mm disk,25 mm
same,Zone of inhibition,bacteria; 0.1 μg/disk,trace
same,zone of inhibition at 1 µg/disc,bacteria; 1 μg/disk,14 mm
same,zone of inhibition at 0.4 µg/disc,M. luteus,9 mm
same,zone of inhibition at 0.8 µg/disc,M. luteus,12 mm
same,zone of inhibition at 1.6 µg/disc,M. luteus,15 mm
same,times less potent than ecteinascidins 729 and 743,M. luteus,four to eight times less potent
COc1cc2c(cc1O)CCN[C@]21CS[C@@H]2c3c(OC(C)=O)c(C)c4c(c3[C@H](COC1=O)N1C[C@@H]3Cc5cc(C)c(OC)c(O)c5[C@H]([C@H]21)N3C)OCO4 [Ecteinascidin 745],cytotoxic activity (in words),CV-1 cells,greatly reduced activity
same,zone of inhibition at 0.8 µg/disc,CV-1 cells; 800 ng/6.35-mm disk,9 mm
same,zone of inhibition at 1.6 µg/disc,CV-1 cells; 1600 ng/6.35-mm disk,14 mm
same,zone of inhibition at 5 µg/disc,Staphylococcus aureus; 5 μg/disk,0 mm
same,IC90,[1],0.19 µg/mL
same,IC50,[1],0.088 µg/mL
same,zone of inhibition at 5 µg/disc,Klebsiella pneumoniae; 5 μg/disk,0 mm
same,zone of inhibition at 5 µg/disc,Pseudomonas aeruginosa; 5 μg/disk,0 mm
same,Zone of inhibition,bacteria; 20 μg/disk,trace
same,zone of inhibition at 40 µg/disc,bacteria; 40 μg/disk,7 mm
same,zone of inhibition at 5 µg/disc,Penicillium oxalicum; 5 μg/disk,0 mm
same,zone of inhibition at 5 µg/disc,Bacillus subtilis; 5 μg/disk,0 mm
same,zone of inhibition at 5 µg/disc,Mycobacterium avium; 5 μg/disk,0 mm
same,T/C,P388 leukemia; 0.25 mg/kg,ca. 100
same,T/C (%),P388 leukemia; 0.25 mg/kg,111%
same,antitumor activity (in words),"P388 leukemia; mouse, in vivo",greatly reduced activity
same,zone of inhibition at 5 µg/disc,Saccharomyces cerevisiae; 5 μg/disk,0 mm
same,zone of inhibition at 5 µg/disc,Escherichia coli; 5 μg/disk,0 mm
same,zone of inhibition at 5 µg/disc,Sarcina lutea sens.; 5 μg/disk,18 mm
same,antimicrobial activity (in words),M. luteus,greatly reduced activity
same,times less potent than ecteinascidins 729 and 743,M. luteus,~32 times
same,zone of inhibition at 5 µg/disc,Bacillus subtilis syn; 5 μg/disk,0 mm
"COc1cc2c(cc1OC)[C@@]1(CS[C@@H]3c4c(OC(C)=O)c(C)c5c(c4[C@H](COC1=O)N1[C@@H]3[C@H]3c4c(cc(C)c(OC)c4OC)C[C@@H]([C@@H]1O)N3C)OCO5)NCC2 [Di- -- O-methyl, Di-O-methylecteinascidin 743]",zone of inhibition at 0.05 µg/disc,CV-1 cells,13 mm
same,zone of inhibition at 0.1 µg/disc,CV-1 cells,15 mm
same,zone of inhibition at 0.2 µg/disc,CV-1 cells,17 mm
same,zone of inhibition at 0.4 µg/disc,CV-1 cells,13 mm
same,zone of inhibition at 0.8 µg/disc,CV-1 cells,16 mm
same,zone of inhibition at 1.6 µg/disc,CV-1 cells,18 mm
same,zone of inhibition at 0.8 µg/disc,M. luteus,8 mm
same,zone of inhibition at 1.6 µg/disc,M. luteus,11 mm
